Source: patent US8993721B2, “Peptides for targeting apoptotic cells and uses thereof” (Kyungpook National University Industry-Academic Cooperation …, priority 2008, dated 2015)
Entries after “also recorded” stand apart in the source; their conditions may differ. Where no end group is shown, it is not given here.

How the values were obtained:
apoptotic A549 cells = assay: Competitive inhibition of binding to apoptotic cells by annexin V treatment (Example 3-2); format: cell-based, human; conditions: annexin V 1000 μM pre-treatment
Procedure: In order to further investigate the binding properties of the peptide of the present invention (ApoPep-1) to apoptotic cells, competitive inhibition by annexin V was measured. To this end, first, apoptotic A549 cells were pre-treated with annexin V, not labeled with fluorescence, at concentrations of 0, 200 and […]. Then, after reacting the cells with fluorescence-labeled annexin V under the same condition as described in Example <3-1>, the binding of the cells was observed under a fluorescence microscope.
Further, apoptotic A549 cells were pre-treated with annexin V, not labeled with fluorescence, at a concentration of 1000 μM. Then, after reacting the cells with fluorescence-labeled peptide under the same condition as described in Example <3-1>, the binding of the cells was observed under a fluorescence microscope.

[1] = tested on: A549 tumor xenotransplanted in nude mice; assay: In vivo fluorescence imaging of targeting of apoptotic cells in tumor (Example 10); parameters: species or system mouse
Procedure: Nude mice in which tumor was xenotransplanted using A549 cells were prepared as in Example <8-1>. The mice were grouped into a doxorubicin (Sigma) treated group (Dox+) and untreated group (Dox−). The treated group was treated with doxorubicin (5 mg/kg) one time, 12 hours prior to injection of the peptide. At the tail vein of each mouse, the polypeptide of the present invention or a control peptide, labeled with fluorescein or Cy7.5 near-infrared fluorescent dye, was injected at a final concentration of 50 μM, under isoflurane anesthesia. Following the injection, in vivo fluorescence images were obtained 0.5 hours and every hour, from 1 hour to 4 hours, after the injection, using an Optix exPlore instrument (ART). The images were standardized using the software provided with the instrument.

Substance	binding of fluorescence-labeled peptide after pre-treatment with unlabeled annexin V (apoptotic A549 cells)	ex vivo fluorescence signal from the kidney ([1]; 4 hours after peptide injection, all the groups, renal clearance)	ex vivo fluorescence signal from the isolated tumor, doxorubicin treated group ([1]; 4 hours after peptide injection, compared to Dox− ApoPep-2 and Dox+ control peptide)	time at which the fluorescence signal from the tumor tissue was most strongly detected ([1]; Cy7.5-labeled, doxorubicin treated group (5 mg/kg, 12 hours before)) [h]	fluorescence signal from the tumor, doxorubicin treated group ([1]; Dox+, Cy7.5-labeled peptide 50 μM)	fluorescence signal from the tumor, doxorubicin untreated group ([1]; Dox−, Cy7.5-labeled peptide 50 μM)	time from which fluorescence from the tumor was detected ([1]; fluorescein-labeled, large tumor (1 cm or larger in diameter), no agent) [h]
CQRPPR (also: fluorescein or Cy7.5 label) [ApoPep-1, peptide CQRPPR screened for macrophages; used fluorescein- or Cy7.5-labeled]	not inhibited	–	–	–	–	–	–
CSVAPR (also: fluorescein or Cy7.5 label) [ApoPep-2, peptide CSVAPR screened for endothelial cells; used fluorescein- or Cy7.5-labeled]	–	strong	strong	2	targeted the tumor tissue	targeting was not observed; also recorded: weakly detected	2
